# pIC50: −log10 of the molar value. Numbered stars: 1 amine (or outer) side, 2 acyl side, 3 side chain; on linkers, the order of the positions; unused ones are H or OH. Bridge positions count the residues as written; N and C are the ends. Square brackets hold non-standard residues; d marks the D form. Peptide text beside a SMILES is read from it. * marks the point of attachment. hPhe(3-Cl-4-CF3) = N[C@@H](CCc1ccc(C(F)(F)F)c(Cl)c1)C(=O)O; hPhe(3-F,4-CF3) = N[C@@H](CCc1ccc(C(F)(F)F)c(F)c1)C(=O)O; hPhe(4-CF3) = N[C@@H](CCc1ccc(C(F)(F)F)cc1)C(=O)O; NEtPhe(4-Cl) = CCN[C@@H](Cc1ccc(Cl)cc1)C(=O)O; NMePhe(4-Cl) = CN[C@@H](Cc1ccc(Cl)cc1)C(=O)O; NMePhe(2-CN) = CN[C@@H](Cc1ccccc1C#N)C(=O)O; NMePhe(4-Me) = CN[C@@H](Cc1ccc(C)cc1)C(=O)O; NMePhe(2-Cl) = CN[C@@H](Cc1ccccc1Cl)C(=O)O; NMedβ3hAla = C[C@H](CC(=O)[*:2])N(C)[*:1]; NMeGly(cPent) = CN[C@H](C(=O)O)C1CCCC1; Phe(3-I) = N[C@@H](Cc1cccc(I)c1)C(=O)O; NMeCha = CN[C@@H](CC1CCCCC1)C(=O)O; NMeChg = CN[C@H](C(=O)O)C1CCCCC1; NMeF = CN[C@@H](Cc1ccccc1)C(=O)O; NMeI = CC[C@H](C)[C@H](NC)C(=O)O; NMeD = CN[C@@H](CC(=O)O)C(=O)O; NMeL = CN[C@@H](CC(C)C)C(=O)O; NMeV = CN[C@H](C(=O)O)C(C)C; d(β3hA) = C[C@@H](N)CC(=O)O; NMeA = CN[C@@H](C)C(=O)O; NMeAib = CNC(C)(C)C(=O)O; Nle = CCCC[C@H](N)C(=O)O; Piperidide = C1CCN(*)CC1; Pyrrolidide = C1CCN(*)C1; Ac5c = NC1(C(=O)O)CCCC1; Aze = O=C(O)[C@@H]1CCN1; Ac4c = NC1(C(=O)O)CCC1; Sar = CNCC(=O)O
# Tested on: Human pancreatic cancer cell line AsPC-1 (G12D mutation Kras)
# Assay: AsPC-1 cell growth inhibition (AsPC-1 CGI)
# Assay type: cell-based
# Settings: read-out: AsPC-1 cell growth inhibition, 50% growth inhibitory concentration (IC50 value); 96 hours, CellTiter-Glo, values classified in ranges
# Experimental: Test compounds were serially dilated with dimethyl sulfoxide, and 200 nL was then dispensed to a U-bottom 96-well plate using Labcyte Echo. […] The cell suspension was dispensed to a. plate containing a test compound at 100 μL per well and incubated at 37° C. in a 5% carbon dioxide gas incubator. 96 hours later, 80 μL of CellTiter-Glo (Promega) was added to each well and fluorescence was measured.
row,Structure (SMILES),pIC50
1,CCCC[C@@H]1NC(=O)[C@H](CCc2ccc(C(F)(F)F)c(Cl)c2)NC(=O)CN(C)C(=O)[C@H](Cc2ccc(Cl)cc2)N(CC)C(=O)CN(C)C(=O)CN(C)C(=O)[C@H]([C@@H](C)CC)NC(=O)[C@H](CC(C)C)N(C)C(=O)C[C@@H](C(=O)N2CCCCC2)N(C)C(=O)[C@H](CC(C)C)NC(=O)C(C)(C)N(C)C1=O [Compound 895] ([NMeL]I[Sar][Sar][NEtPhe(4-Cl)][Sar][hPhe(3-Cl-4-CF3)][Nle][NMeAib]L[NMeD]-Piperidide; lactam N-11),< 6.30
2,"CC[C@H](C)[C@@H]1NC(=O)[C@H](CC(C)C)N(C)C(=O)C[C@@H](C)N(C)C(=O)[C@H](CC(C)C)NC(=O)C(C)(C)N(C)C(=O)[C@H](CC(C)C)NC(=O)[C@H](CCc2ccc(C(F)(F)F)c(F)c2)NC(=O)CN(C)C(=O)[C@H](CC2CCCCC2)N(C)C(=O)CN(C)C(=O)[C@@H]2CCN2C1=O [Compound 905] (cyclo([Aze][Sar][NMeCha][Sar][hPhe(3-F,4-CF3)]L[NMeAib]L[NMedβ3hAla][NMeL]I))",< 6.30
3,CC[C@H](C)[C@@H]1NC(=O)[C@H](C)N(C)C(=O)C[C@@H](C(=O)N2CCCC2)N(C)C(=O)[C@H](C(C)C)N(C)C(=O)C2(CCC2)NC(=O)[C@H](Cc2ccccc2Cl)N(C)C(=O)[C@H](CCc2ccc(C(F)(F)F)c(Cl)c2)NC(=O)CN(C)C(=O)[C@H](CC2CCCCC2)N(C)C(=O)CN(C)C(=O)CN(C)C1=O [Compound 906] ([NMeA]I[Sar][Sar][NMeCha][Sar][hPhe(3-Cl-4-CF3)][NMePhe(2-Cl)][Ac4c][NMeV][NMeD]-Pyrrolidide; lactam N-11),< 6.30
4,CC[C@H](C)[C@@H]1NC(=O)[C@H](CC(C)C)N(C)C(=O)C[C@@H](C(=O)N(C)C)N(C)C(=O)[C@H](C2CCCC2)N(C)C(=O)C2(CCCC2)NC(=O)[C@H](Cc2ccc(C)cc2)N(C)C(=O)[C@H](CCc2ccc(C(F)(F)F)c(Cl)c2)NC(=O)CN(C)C(=O)[C@H](CC2CCCCC2)N(C)C(=O)[C@@H]2CCN2C(=O)[C@H](C)N(C)C1=O [Compound 908] ([NMeL]I[NMeA][Aze][NMeCha][Sar][hPhe(3-Cl-4-CF3)][NMePhe(4-Me)][Ac5c][NMeGly(cPent)][NMeD]-NMe2; lactam N-11),< 6.30
5,CC[C@H](C)[C@@H]1NC(=O)[C@H](C)N(C)C(=O)C[C@@H](C)NC(=O)[C@H](C(C)C)N(C)C(=O)[C@H](Cc2ccccc2)N(C)C(=O)[C@H](CC(C)C)N(C)C(=O)[C@H](CCc2ccc(C(F)(F)F)cc2)NC(=O)CN(C)C(=O)[C@H](Cc2ccc(Cl)cc2)N(C)C(=O)[C@@H]2CCN2C(=O)CN(C)C1=O [Compound 913] (cyclo([Aze][NMePhe(4-Cl)][Sar][hPhe(4-CF3)][NMeL][NMeF][NMeV][d(β3hA)][NMeA]I[Sar])),< 6.30
6,CC[C@H](C)[C@@H]1NC(=O)[C@H](CC(C)C)N(C)C(=O)C[C@@H](C(=O)N(C)C)N(C)C(=O)[C@H]([C@@H](C)CC)N(C)C(=O)[C@H](C(C)C)NC(=O)[C@@H](C)NC(=O)[C@H](CCc2ccc(C(F)(F)F)c(Cl)c2)NC(=O)CN(C)C(=O)[C@H](Cc2ccc(C)cc2)N(C)C(=O)[C@@H]2CCN2C(=O)[C@H](C)N(C)C1=O [Compound 915] ([NMeL]I[NMeA][Aze][NMePhe(4-Me)][Sar][hPhe(3-Cl-4-CF3)][dA]V[NMeI][NMeD]-NMe2; lactam N-11),< 6.30
7,CC[C@H](C)[C@@H]1NC(=O)[C@H](CC(C)C)N(C)C(=O)C[C@@H](C(=O)N2CCCCC2)N(C)C(=O)[C@H](C2CCCCC2)N(C)C(=O)[C@@H](C)NC(=O)[C@@H]2CCCN2C(=O)[C@H](CCc2ccc(C(F)(F)F)c(Cl)c2)NC(=O)CN(C)C(=O)[C@H](CC2CCCCC2)N(C)C(=O)CN(C)C(=O)CN(C)C1=O [Compound 917] ([NMeL]I[Sar][Sar][NMeCha][Sar][hPhe(3-Cl-4-CF3)]P[dA][NMeChg][NMeD]-Piperidide; lactam N-11),< 6.30
8,CC[C@H](C)[C@@H]1NC(=O)[C@H](CC(C)C)N(C)C(=O)C[C@@H](C)NC(=O)[C@H](C2CCCC2)N(C)C(=O)[C@H](C(C)C)NC(=O)[C@@H]2CCCN2C(=O)[C@H](CCc2ccc(C(F)(F)F)c(Cl)c2)NC(=O)CN(C)C(=O)[C@H](Cc2ccc(C)cc2)N(C)C(=O)[C@@H]2CCN2C(=O)[C@H](C)N(C)C1=O [Compound 933] (cyclo([Aze][NMePhe(4-Me)][Sar][hPhe(3-Cl-4-CF3)]PV[NMeGly(cPent)][d(β3hA)][NMeL]I[NMeA])),< 6.30
9,CCCC[C@@H]1NC(=O)[C@H](Cc2cccc(I)c2)NC(=O)CN(C)C(=O)[C@H](Cc2ccc(Cl)cc2)N(C)C(=O)CN(C)C(=O)CN(C)C(=O)[C@H]([C@@H](C)CC)NC(=O)[C@H](CC(C)C)N(C)C(=O)C[C@@H](C(=O)N2CCCCC2)N(C)C(=O)[C@H](CC(C)C)NC(=O)[C@H](Cc2ccc(Cl)cc2)N(C)C1=O [Compound 934] ([NMeL]I[Sar][Sar][NMePhe(4-Cl)][Sar][Phe(3-I)][Nle][NMePhe(4-Cl)]L[NMeD]-Piperidide; lactam N-11),< 6.30
10,CC[C@H](C)[C@@H]1NC(=O)[C@H](CC(C)C)N(C)C(=O)C[C@@H](C(=O)N2CCCCC2)N(C)C(=O)[C@H](C(C)C)N(C)C(=O)C2(CCCC2)NC(=O)[C@@H]2CCCN2C(=O)[C@H](CCc2ccc(C(F)(F)F)c(Cl)c2)NC(=O)CN(C)C(=O)[C@H](Cc2ccccc2C#N)N(C)C(=O)CN(C)C(=O)CN(C)C1=O [Compound 935] ([NMeL]I[Sar][Sar][NMePhe(2-CN)][Sar][hPhe(3-Cl-4-CF3)]P[Ac5c][NMeV][NMeD]-Piperidide; lactam N-11),< 6.30

# From US20240148821A1, “PHARMACEUTICAL USE OF CYCLIC PEPTIDE COMPOUND” (CHUGAI SEIYAKU KABUSHIKI KAISHA, priority 2021, published 2024)
